Literature values as cited in patent US8158161B2, “Methods and pharmaceutical compositions useful for treating psoriasis” (S.U.L.V.E. Ltd., priority 2005, dated 2012).

System: K562 cells
Conditions: Leoni 1997

Row | Structure (SMILES) | rank among isothiocyanates tested as inhibitors of leukemic cell growth
1 | C=CCN=C=S [2-Propenyl-isothiocyanate] | most potent inhibitors
2 | S=C=NCc1ccccc1 [Benzyl-isothiocyanate] | most potent inhibitors
